From ChEMBL document CHEMBL4831528, “Discovery of Novel Pterostilbene-Based Derivatives as Potent and Orally Active NLRP3 Inflammasome Inhibitors with Inflammatory Activity for Colitis” (J Med Chem, 2021)

Experiments:
[1] = target: NACHT, LRR and PYD domains-containing protein 3 (Mus musculus) (UniProt Q8R4B8); assay: Inhibition of NLRP3 inflammasome activation in LPS-stimulated mouse J774A.1 cells assessed as inhibition of cell pyrolysis at 10 uM incubated for 1 hr followed by ATP addition and measured after 30 mins by Hoechst 33342/propidium iodide staining based high content screening method relative to control; conditions: J774.A1, time 1.5 hrs
Sequence of NACHT, LRR and PYD domains-containing protein 3 (Mus musculus) (Q8R4B8 whole entry, the tested form may be a part): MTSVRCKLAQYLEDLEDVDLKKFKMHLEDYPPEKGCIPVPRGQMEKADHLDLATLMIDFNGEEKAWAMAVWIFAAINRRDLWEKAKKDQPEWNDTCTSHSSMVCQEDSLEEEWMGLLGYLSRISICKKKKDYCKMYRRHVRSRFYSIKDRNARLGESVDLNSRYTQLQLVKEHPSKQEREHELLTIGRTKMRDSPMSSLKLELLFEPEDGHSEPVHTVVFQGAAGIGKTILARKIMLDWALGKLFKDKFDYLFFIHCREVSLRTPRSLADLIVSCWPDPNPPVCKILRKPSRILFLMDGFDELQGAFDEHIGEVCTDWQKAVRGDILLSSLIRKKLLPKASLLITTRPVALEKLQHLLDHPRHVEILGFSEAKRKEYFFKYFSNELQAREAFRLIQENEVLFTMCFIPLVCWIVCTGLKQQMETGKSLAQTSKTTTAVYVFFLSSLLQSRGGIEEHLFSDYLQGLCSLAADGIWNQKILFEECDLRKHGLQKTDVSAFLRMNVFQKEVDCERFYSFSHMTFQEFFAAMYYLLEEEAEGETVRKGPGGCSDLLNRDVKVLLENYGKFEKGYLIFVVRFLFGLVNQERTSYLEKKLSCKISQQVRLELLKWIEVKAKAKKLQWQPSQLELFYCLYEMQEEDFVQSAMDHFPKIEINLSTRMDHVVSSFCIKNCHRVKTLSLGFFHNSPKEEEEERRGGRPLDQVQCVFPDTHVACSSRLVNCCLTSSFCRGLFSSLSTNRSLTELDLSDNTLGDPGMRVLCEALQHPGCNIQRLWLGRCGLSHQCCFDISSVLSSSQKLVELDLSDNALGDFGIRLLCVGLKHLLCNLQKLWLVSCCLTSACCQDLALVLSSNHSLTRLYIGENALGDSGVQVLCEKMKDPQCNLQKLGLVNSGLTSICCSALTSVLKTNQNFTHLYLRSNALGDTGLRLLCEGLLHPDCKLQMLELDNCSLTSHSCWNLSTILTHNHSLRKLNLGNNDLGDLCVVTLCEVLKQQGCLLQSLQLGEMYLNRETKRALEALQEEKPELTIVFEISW

L02 = assay: Cytotoxicity against human L-02 cells incubated for 24 hrs by MTT assay; format: cell-based; conditions: L02, 24 h
[2] = target: NACHT, LRR and PYD domains-containing protein 3 (Mus musculus) (UniProt Q8R4B8); assay: Inhibition of NLRP3 inflammasome activation in LPS-stimulated mouse J774A.1 cells assessed as inhibition of cell pyrolysis at 20 uM incubated for 1 hr followed by ATP addition and measured after 30 mins by Hoechst 33342/propidium iodide staining based high content screening method relative to control; conditions: J774.A1, time 1.5 hrs
[3] = target: NACHT, LRR and PYD domains-containing protein 3 (Mus musculus, UniProt Q8R4B8); assay: Inhibition of NLRP3 inflammasome activation in LPS-stimulated mouse bone marrow-derived macrophages assessed as reduction in IL-1beta secretion preincubated for 30 mins followed by nigericin addition and measured after 30 mins by ELISA; format: tissue-based, Macrophage
Sequence of NACHT, LRR and PYD domains-containing protein 3 (Q8R4B8 whole entry, the tested form may be a part): as above

| SMILES | inhibition [1] | IC50 (L02) | inhibition [2] | IC50 [3] |
| --- | --- | --- | --- | --- |
| C=CC(=O)Nc1ccc(/C=C/c2cc(OC)cc(OC)c2/C=C/[N+](=O)[O-])cc1 | 71.2% | > 100 µM |  |  |
| O=[N+]([O-])/C=C/c1ccc2c(c1)OCO2 | 70.6% | 41.1 µM | 89.2% | 2.31 µM |
| COCC(=O)Nc1ccc(/C=C/c2cc(OC)cc(OC)c2/C=C/[N+](=O)[O-])cc1 | 60% | > 100 µM |  |  |
| CCCC(C)C(=O)Nc1ccc(/C=C/c2cc(OC)cc(OC)c2/C=C/[N+](=O)[O-])cc1 (stereo not drawn) | 41% | > 100 µM |  |  |
| C=CCCCOc1ccc(/C=C/c2cc(OC)cc(OC)c2-c2cnn[nH]2)cc1 |  | > 100 µM |  |  |
| COc1cc(/C=C/c2ccc(OCC(=O)NCc3ccncc3)cc2)c(/C=C/[N+](=O)[O-])c(OC)c1 | 45.3% | 63 µM | 65.4% | 7.68 µM |
| COc1ccc(NC(=O)COc2ccc(/C=C/c3cc(OC)cc(OC)c3/C=C/[N+](=O)[O-])cc2)cc1 | 12.9% | > 100 µM | 15.1% |  |
| COc1ccc(CNC(=O)COc2ccc(/C=C/c3cc(OC)cc(OC)c3/C=C/[N+](=O)[O-])cc2)cc1 | 11.8% | > 100 µM | 23.1% |  |
| C=CCCCOc1ccc(/C=C/c2cc(OC)cc(OC)c2/C=C/[N+](=O)[O-])cc1 | 26.8% | > 100 µM | 33.5% |  |
| COc1cc(/C=C/c2ccc(OCC(=O)NCc3ccc(C#N)cc3)cc2)c(/C=C/[N+](=O)[O-])c(OC)c1 | 34.4% | > 100 µM | 59.9% |  |
| CCCC(=O)Nc1ccc(/C=C/c2cc(OC)cc(OC)c2/C=C/[N+](=O)[O-])cc1 | 48.9% | > 100 µM |  |  |
| COc1cc(/C=C/c2ccc(OCc3ccc(C(F)(F)F)cc3)cc2)c(-c2cnn[nH]2)c(OC)c1 |  | > 100 µM | 3.25% |  |
| COc1cc(/C=C/c2ccc(O)cc2)c(/C=C/[N+](=O)[O-])c(OC)c1 | 13.3% | > 100 µM | 31.5% | > 10 µM |
| CCCCNC(=O)COc1ccc(/C=C/c2cc(OC)cc(OC)c2/C=C/[N+](=O)[O-])cc1 | 40.9% | > 100 µM | 70.1% | 7.18 µM |
| COc1cc(/C=C/c2ccc(OCC(=O)NCc3ccc(Cl)cc3)cc2)c(/C=C/[N+](=O)[O-])c(OC)c1 | 30.7% | > 100 µM | 49.6% |  |
| COc1cc(/C=C/c2ccc(NC(=O)C3CCCCC3)cc2)c(/C=C/[N+](=O)[O-])c(OC)c1 | 28.7% | > 100 µM |  | > 10 µM |
| COCCCOc1ccc(/C=C/c2cc(OC)cc(OC)c2/C=C/[N+](=O)[O-])cc1 | 43.2% | > 100 µM | 53.7% |  |
| COc1cc(/C=C/c2ccc(OCC(=O)Nc3ccc(Br)cc3)cc2)c(/C=C/[N+](=O)[O-])c(OC)c1 | 9.56% | > 100 µM | 26.2% |  |
| COc1cc(/C=C/c2ccc(OCC(=O)NCc3ccccc3)cc2)cc(OC)c1 | 9.65% | > 100 µM | 15.4% |  |
| COc1cc(/C=C/c2ccc(NC(=O)CCl)cc2)c(/C=C/[N+](=O)[O-])c(OC)c1 | 90% | 42.6 µM |  |  |
| COc1cc(/C=C/c2ccc(NC(=O)OC(C)(C)C)cc2)c(/C=C/[N+](=O)[O-])c(OC)c1 | 24% | > 100 µM |  |  |
| COc1cc(NC(=O)COc2ccc(/C=C/c3cc(OC)cc(OC)c3/C=C/[N+](=O)[O-])cc2)cc(OC)c1 | 20.1% | > 100 µM | 39.8% |  |
| COc1cc(/C=C/c2ccc(NC(=O)CCCl)cc2)c(/C=C/[N+](=O)[O-])c(OC)c1 | 70.5% | > 100 µM |  | 0.76 µM |
| COc1cc(/C=C/c2ccc(OCC(=O)Nc3ccc(Cl)cc3)cc2)c(/C=C/[N+](=O)[O-])c(OC)c1 | 22.1% | > 100 µM | 40.1% |  |

| SMILES | inhibition [1] | IC50 (L02) | inhibition [2] | IC50 [3] |
| --- | --- | --- | --- | --- |
| COc1cc(/C=C/c2ccc(OCC(=O)NCC3CCOCC3)cc2)c(/C=C/[N+](=O)[O-])c(OC)c1 | 15.3% | > 100 µM | 25.3% |  |
| COc1cc(/C=C/c2ccc(OCc3ccc(C(F)(F)F)cc3)cc2)cc(OC)c1 | 6.32% | > 100 µM | 8.51% | > 10 µM |
| C=C1C(=O)[C@]23[C@H](O)[C@H]1CC[C@H]2[C@@]12CO[C@]3(O)[C@@H](O)[C@@H]1C(C)(C)CC[C@@H]2O [ORIDONIN] | 69.5% | 38.2 µM | 83.3% | 0.81 µM |
| COc1cc(/C=C/c2ccc(NC(=O)C(C)C)cc2)c(/C=C/[N+](=O)[O-])c(OC)c1 | 69% | > 100 µM |  |  |
| COCCOc1ccc(/C=C/c2cc(OC)cc(OC)c2)cc1 | 25.7% | > 100 µM | 32.3% |  |
| COc1cc(/C=C/c2ccc(NC(=O)CC(C)(C)C)cc2)c(/C=C/[N+](=O)[O-])c(OC)c1 | 9.89% | > 100 µM |  |  |
| COc1cc(/C=C/c2ccc(OCC(=O)Nc3ccc(F)cc3)cc2)c(/C=C/[N+](=O)[O-])c(OC)c1 | 40.7% | > 100 µM | 49.6% |  |
| COCCOc1ccc(/C=C/c2cc(OC)cc(OC)c2-c2cnn[nH]2)cc1 | 11.3% | 94.5 µM | 26.9% |  |
| COc1cc(/C=C/c2ccc(NC(C)=O)cc2)c(/C=C/[N+](=O)[O-])c(OC)c1 | 56.2% | > 100 µM |  |  |
| COc1cc(/C=C/c2ccc(OCC(=O)NCCc3ccccc3)cc2)c(/C=C/[N+](=O)[O-])c(OC)c1 | 26.2% | > 100 µM | 46.2% |  |
| COCCCOc1ccc(/C=C/c2cc(OC)cc(OC)c2)cc1 | 17.1% | > 100 µM | 20.2% |  |
| C/C=C/C(=O)Nc1ccc(/C=C/c2cc(OC)cc(OC)c2/C=C/[N+](=O)[O-])cc1 | 60.7% | > 100 µM |  |  |
| COCCOc1ccc(/C=C/c2cc(OC)cc(OC)c2/C=C/[N+](=O)[O-])cc1 | 34.6% | > 100 µM | 40.2% |  |
| CCC(=O)Nc1ccc(/C=C/c2cc(OC)cc(OC)c2/C=C/[N+](=O)[O-])cc1 | 50.7% | > 100 µM |  |  |
| COc1cc(/C=C/c2ccc(OCc3ccc(C(F)(F)F)cc3)cc2)c(/C=C/[N+](=O)[O-])c(OC)c1 | 17.9% | > 100 µM | 23.7% |  |
| COc1cc(/C=C/c2ccc(OCC(=O)NC3CCN(C(=O)OC(C)(C)C)CC3)cc2)c(/C=C/[N+](=O)[O-])c(OC)c1 | 33% | > 100 µM | 42.3% |  |
| COc1cc(/C=C/c2ccc(OCC(=O)NC3CCCCC3)cc2)c(/C=C/[N+](=O)[O-])c(OC)c1 | 25.6% | > 100 µM | 41.8% |  |
| CCCCC(=O)Nc1ccc(/C=C/c2cc(OC)cc(OC)c2/C=C/[N+](=O)[O-])cc1 | 36% | > 100 µM |  |  |
| COc1cc(/C=C/c2ccc(OCC(=O)NCc3ccccc3)cc2)c(/C=C/[N+](=O)[O-])c(OC)c1 | 27.9% | > 100 µM | 57.9% |  |
| COc1cc(/C=C/c2ccc(NC(=O)C3CCCC3)cc2)c(/C=C/[N+](=O)[O-])c(OC)c1 | 45.7% | > 100 µM |  |  |
| COc1cc(/C=C/c2ccc(NC(=O)C3CCC3)cc2)c(/C=C/[N+](=O)[O-])c(OC)c1 | 55.6% | > 100 µM |  | 1.41 µM |
| C=CCCCOc1ccc(/C=C/c2cc(OC)cc(OC)c2)cc1 | 11.1% | > 100 µM | 12.1% |  |
| COc1cc(/C=C/c2ccc(OCC(=O)NCc3ccc(C)cc3)cc2)c(/C=C/[N+](=O)[O-])c(OC)c1 | 24.1% | > 100 µM | 31.9% |  |
| COc1cc(/C=C/c2ccc(NC(=O)COC(C)=O)cc2)c(/C=C/[N+](=O)[O-])c(OC)c1 | 61% | 58.7 µM |  |  |
